Experimental data: patent US5430062A, “Stilbene derivatives as anticancer agents” (priority 1993, dated 1995)
Counter-ions that a name gives are not always drawn. Like-named read-outs stand apart in the source and are kept apart here.

How the values were obtained:
[1] = tested on: A-549 lung carcinoma; assay: MTT cytotoxicity assay, A-549; settings: Homo sapiens, A549, […], read-out: Cytotoxicity ED50, A-549
[2] = tested on: MLM melanoma; assay: MTT cytotoxicity assay, MLM; settings: […], read-out: Cytotoxicity ED50, MLM
[3] = tested on: HT-29 colon adenocarcinoma; assay: MTT cytotoxicity assay, HT-29; settings: Homo sapiens, HT-29, […], read-out: Cytotoxicity ED50, HT-29
[4] = tested on: SKMEL-5 melanoma; assay: MTT cytotoxicity assay, SKMEL-5; settings: Homo sapiens, SK-MEL-5, […], read-out: Cytotoxicity ED50, SKMEL-5
[5] = tested on: MCF-7 breast carcinoma; assay: MTT cytotoxicity assay, MCF-7; settings: Homo sapiens, MCF7, […], read-out: Cytotoxicity ED50, MCF-7
[6] = tested on: tubulin; assay: Inhibition of tubulin polymerization (turbidimetry); assay type: biochemical, bovine

IC50 ([6]; second series (Tables V-VII, IX), read-out: Inhibition of Tubulin Polymerization IC50 (±S.D.)) [µM] | IC50 ([6]; Table X, different glutamate preparation (1M monosodium glutamate and GTP), read-out: inhibn of tubulin polymn IC50 (±SD)) [µM] | Compound | IC50 [1] [µM] | IC50 [2] [µM] | IC50 [3] [µM] | IC50 [4] [µM] | IC50 [5] [µM] | inhibition of tubulin polymerization (class) [6] | inhibition of tubulin polymerization (in words) [6] | IC50 ([6]; Table X footnote b, different glutamate preparation, read-out: tubulin polymerization IC50, standard agents) [µM]
 |  | COc1ccc(/C=C\c2ccc(OC)c(OC)c2OC)cc1 [5d, (Z)-1-(4-Methoxyphenyl)-2-(2,3,4-trimethoxy-phenyl)ethene] | 0.97 | 10.9 | 1 | 1.1 | 0.23 | inactive |  | 
 |  | COc1ccc(NC(=O)c2cc(OC)c(OC)c(OC)c2)cc1 [11a, 3,4,5-Trimethoxy-N-(4-methoxyphenyl)benzamide] | 14.1 | > 25 | 22.7 | > 25 | 12.2 |  | lower inhibitory activity | 
> 40 |  | COc1ccc(/C=C\c2cc(OC)c(OCc3ccccc3)c(OC)c2)cc1 [15j, (Z)-1-[4-(Benzyloxy)-3,5-(dimethoxy)phenyl]-2-(4-methoxyphenyl)ethene] |  |  |  |  |  |  |  | 
 |  | CCc1ccc(/C=C/c2cc(OC)c(OC)c(OC)c2)cc1 [16e, (E)-(4-Ethylphenyl)-2-(3,4,5-trimethoxyphenyl)ethene] | 0.13 | 0.22 | 0.11 | 0.17 | 1.2 |  |  | 
 |  | COc1cc(/C=C/c2ccc(C(C)(C)C)cc2)cc(OC)c1OC [16g, (E)-1-(4-t-Butylphenyl)-2-(3,4,5-trimethoxyphenyl)ethene] | > 25 | > 25 | > 25 | > 25 | > 25 |  |  | 
 |  | COc1ccc(/C=C/c2ccc(OC)c(OC)c2)cc1 [16h, (E)-(4-Methoxyphenyl)-2-(3,4-dimethoxyphenyl)ethene] | 11.7 | > 25 | > 25 | > 25 | > 25 |  |  | 
 |  | COc1ccc(/C=C/c2cc(OC)cc(OC)c2)cc1 [16i, (E)-1-(3,5-Dimethoxyphenyl)-2-(4-methoxyphenyl)ethene] | 7.5 | > 25 | 6.9 | 0.88 | 9.7 |  |  | 
 |  | COc1ccc(/C=C/c2cc(OC)c(O[Si](C)(C)C(C)(C)C)c(OC)c2)cc1 [16k, (E)-1-[4-{(t-Butyldimethylsilyl)-oxy}-3,5-(dimethoxy)-phenyl]-2-(4-methoxyphenyl)ethene] | > 25 | > 25 | > 25 | > 25 | > 25 |  |  | 
 |  | COc1ccc(/C=C/c2cc(OC)c(OC(C)=O)c(OC)c2)cc1 [16l, (E)-1-(4-Acetoxy-3,5-dimethoxyphenyl)-2-(4-methoxy-phenyl)ethene] | 16.4 | 21 | 11.7 | 10.2 | 19.4 |  |  | 
 | > 40 | CCCc1ccc(NCc2cc(OC)c(OC)c(OC)c2)cc1 [110g, 4-n-Propyl-N-(3,4,5-trimethoxybenzyl)aniline Hydrochloride] |  |  |  |  |  |  |  | 
 |  | COc1cccc2c1C(=O)c1c(O)c3c(c(O)c1C2=O)C[C@@](O)(C(=O)CO)C[C@@H]3O[C@H]1C[C@H](N)[C@H](O)[C@H](C)O1 [Adriamycin, reference compound] | 0.029 | 0.13 | 0.055 | 0.032 | 0.031 |  |  | 
 |  | COc1cc(/C=C/c2ccc([N+](=O)[O-])cc2)cc(OC)c1OC [compound 6l, (E)-1-(4-Nitrophenyl)-2-(3,4,5-trimethoxyphenyl)ethene] | > 25 | > 25 | > 25 | > 25 | > 25 |  |  | 
 |  | COc1cc(/C=C/c2ccc(O)cc2)cc(OC)c1OC [compound 6o, (E)-1-(4-Hydroxyphenyl)-2-(3,4,5-trimethoxyphenyl)ethene] | > 25 | 24.2 | > 25 | 11.6 | 18.6 |  |  | 
 |  | COc1cc(CCc2ccc(NC(C)=O)cc2)cc(OC)c1OC [compound 8m, 1-(4-Acetamidophenyl)-2-(3,4,5-trimethoxyphenyl)ethane] | > 25 | > 25 | > 25 | > 25 | > 25 |  |  | 
 |  | COc1ccc(/C=C\c2cc(OC)c(OC)c(OC)c2)cc1 [compound E, reference compound] |  |  |  |  |  |  |  | 1.2 ± 0.05
